Experimental data reported in patent US20050152858A1, “Solubilizing agents for active or functional organic compounds” (ISP INVESTMENTS INC., priority 2003, published 2005).
Where two headings read alike, the source gives them in different places.

Experiments:
[1] = Enhancement of UVA absorption (UV spectrum of sunscreen in solvent); assay type: physicochemical; settings: for λmax of E-517 in the solvent: 10 mg sunscreen E-517 (avobenzone) in 1 L of solvent; for λmax of E-567 in the solvent: 10 mg sunscreen E-567 (benzophenone-3) in 1 L of solvent
Method: A 10-mg portion of sunscreen was dissolved in 1 L of solvent, and the UV spectrum of the solution was measured using a Cary 1 E UV-Visible spectrophotometer.

[2] = Solubility of solid organic sunscreens in various solvents
Method: Predetermined solutions (w/w) were prepared at 40-50° C. using a given solvent-sunscreen combination. The solutions were allowed to stand for 1 week at 25° C. in a constant temperature chamber. A small seed crystal was initially added at 25° C. to hasten equilibration. Solubility was measured by GLC using standard solutions to calibrate the instrument.

| Compound | λmax of E-517 in the solvent [1] [nm] | λmax of E-567 in the solvent [1] [nm] | other results |
| --- | --- | --- | --- |
| O=C(OCCc1ccccc1)c1ccccc1 [2-phenylethyl benzoate, 2-Phenylethyl Benzoate] | 362 | 329 |  |
| CC(COC(=O)c1ccccc1)OC(=O)c1ccccc1 (centres unmarked) [propylene glycol dibenzoate, Propylene Glycol Dibenzoate] |  |  | Solubility of MBC in the solvent [2]: 33 % w/w |
| O=C(Cc1cccc(C(F)(F)F)c1)OCc1ccccc1 [benzyl α,α,α-trifluoro-m-tolylacetate, Benzyl α,α,α-Trifluoro-m-tolylacetate] |  |  | Solubility of Avobenzone in the solvent ([2]; sunscreen Avobenzone, 1 week at 25° C., seeded, GLC): 15 % w/w; Solubility of MBC in the solvent ([2]; sunscreen MBC (4-methylbenzylidene camphor), 1 week at 25° C., seeded, GLC): 34 % w/w; Solubility of Oxybenzone in the solvent ([2]; sunscreen Oxybenzone, 1 week at 25° C., seeded, GLC): 28 % w/w |
| CCO [Ethanol, reference compound] | 358 | 325 |  |
